# Laboratory results from patent US20240398811A1, “PRC2 INHIBITORS FOR USE IN TREATING BLOOD DISORDERS” (ORIC Pharmaceuticals, Inc., priority 2021, published 2024).
# Molecular target: purified human, His-tagged PRC2 complex (Homo sapiens (Human), UniProt O75530)
# Test: Hot Spot HMT assay, inhibition of PRC2 enzymatic activity
# Type: biochemical
# Conditions: 10 nM PRC2 complex, 1 μM 3H-SAM, core histone H3, 10-point dose-response
# How it was run: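 Methyl transfer from 1 μM tritiated SAM onto 0.05 mg/ml core histone H3, catalysed by 10 nM His/Flag-tagged human PRC2 holoenzyme, was run 1 hr at 30° C after a 20 min compound preincubation. Serial dilutions began at 1.0 μM; product captured on filters and counted.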
# Sequence of purified human, His-tagged PRC2 complex (O75530 whole entry): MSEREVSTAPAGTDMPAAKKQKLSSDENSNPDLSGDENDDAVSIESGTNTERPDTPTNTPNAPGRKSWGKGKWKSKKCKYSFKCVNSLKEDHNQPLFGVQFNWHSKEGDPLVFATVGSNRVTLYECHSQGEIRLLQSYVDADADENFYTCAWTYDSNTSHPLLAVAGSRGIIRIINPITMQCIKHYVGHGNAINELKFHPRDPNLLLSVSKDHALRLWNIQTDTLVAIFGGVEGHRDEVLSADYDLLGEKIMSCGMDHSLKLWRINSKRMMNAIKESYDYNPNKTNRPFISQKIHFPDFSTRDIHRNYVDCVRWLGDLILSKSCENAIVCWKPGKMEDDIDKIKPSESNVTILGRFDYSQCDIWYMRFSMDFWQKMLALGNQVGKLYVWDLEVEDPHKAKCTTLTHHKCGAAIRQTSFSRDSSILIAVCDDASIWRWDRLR
# Sequence of purified human, His-tagged PRC2 complex (Q15910 whole entry partner): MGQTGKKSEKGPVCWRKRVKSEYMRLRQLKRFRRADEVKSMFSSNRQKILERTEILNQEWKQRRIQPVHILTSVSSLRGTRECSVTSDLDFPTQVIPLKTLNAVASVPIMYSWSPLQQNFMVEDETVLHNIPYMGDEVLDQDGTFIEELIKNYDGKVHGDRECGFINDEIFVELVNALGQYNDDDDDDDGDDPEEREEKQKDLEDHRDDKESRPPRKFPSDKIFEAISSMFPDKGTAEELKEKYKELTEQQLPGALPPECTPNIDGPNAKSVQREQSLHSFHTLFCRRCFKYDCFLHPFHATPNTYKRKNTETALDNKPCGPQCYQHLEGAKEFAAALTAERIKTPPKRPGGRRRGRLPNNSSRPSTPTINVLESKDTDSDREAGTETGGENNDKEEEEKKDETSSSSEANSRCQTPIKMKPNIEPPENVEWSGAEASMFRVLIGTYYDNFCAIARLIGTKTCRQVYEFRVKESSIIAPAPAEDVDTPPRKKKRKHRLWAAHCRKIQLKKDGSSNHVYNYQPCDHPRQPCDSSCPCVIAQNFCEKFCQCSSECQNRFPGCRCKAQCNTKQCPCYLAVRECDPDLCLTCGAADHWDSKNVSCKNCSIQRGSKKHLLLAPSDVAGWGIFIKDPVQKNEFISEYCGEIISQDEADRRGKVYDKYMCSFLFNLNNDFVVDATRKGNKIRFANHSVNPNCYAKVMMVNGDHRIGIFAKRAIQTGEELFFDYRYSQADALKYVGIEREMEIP
# Sequence of purified human, His-tagged PRC2 complex (Q15022 whole entry partner): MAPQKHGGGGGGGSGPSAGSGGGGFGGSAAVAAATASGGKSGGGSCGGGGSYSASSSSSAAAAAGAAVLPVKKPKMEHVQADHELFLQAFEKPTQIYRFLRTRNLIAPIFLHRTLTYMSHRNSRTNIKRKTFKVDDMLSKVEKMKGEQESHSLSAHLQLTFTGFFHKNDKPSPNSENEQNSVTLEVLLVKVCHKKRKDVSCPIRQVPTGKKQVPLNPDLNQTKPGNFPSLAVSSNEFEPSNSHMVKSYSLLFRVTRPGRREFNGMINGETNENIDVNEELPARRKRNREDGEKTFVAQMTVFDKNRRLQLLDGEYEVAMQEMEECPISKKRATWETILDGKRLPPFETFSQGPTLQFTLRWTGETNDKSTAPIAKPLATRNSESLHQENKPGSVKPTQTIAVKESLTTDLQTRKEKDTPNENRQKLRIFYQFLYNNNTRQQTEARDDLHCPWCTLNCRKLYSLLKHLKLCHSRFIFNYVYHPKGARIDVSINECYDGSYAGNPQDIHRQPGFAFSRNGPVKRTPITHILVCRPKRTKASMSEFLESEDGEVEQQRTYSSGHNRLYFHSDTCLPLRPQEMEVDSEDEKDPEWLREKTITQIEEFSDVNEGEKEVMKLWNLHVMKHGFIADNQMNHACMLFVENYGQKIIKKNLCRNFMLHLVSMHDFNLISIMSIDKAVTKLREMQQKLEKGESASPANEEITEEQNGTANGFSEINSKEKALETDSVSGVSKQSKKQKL
# Sequence of purified human, His-tagged PRC2 complex (Q6ZN18 whole entry partner): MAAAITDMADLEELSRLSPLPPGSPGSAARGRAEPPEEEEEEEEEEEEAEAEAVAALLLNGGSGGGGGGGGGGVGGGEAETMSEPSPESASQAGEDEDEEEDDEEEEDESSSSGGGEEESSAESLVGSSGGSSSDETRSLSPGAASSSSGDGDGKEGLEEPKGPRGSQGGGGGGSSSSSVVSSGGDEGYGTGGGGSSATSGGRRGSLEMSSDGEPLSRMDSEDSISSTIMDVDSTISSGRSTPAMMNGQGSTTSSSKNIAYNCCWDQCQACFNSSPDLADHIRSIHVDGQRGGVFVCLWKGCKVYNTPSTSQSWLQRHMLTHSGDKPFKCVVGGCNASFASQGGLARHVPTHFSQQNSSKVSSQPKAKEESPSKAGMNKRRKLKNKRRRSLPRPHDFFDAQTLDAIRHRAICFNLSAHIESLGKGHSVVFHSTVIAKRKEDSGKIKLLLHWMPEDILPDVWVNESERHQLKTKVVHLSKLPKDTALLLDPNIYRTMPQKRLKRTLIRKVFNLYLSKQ
# Sequence of purified human, His-tagged PRC2 complex (Q09028 whole entry partner): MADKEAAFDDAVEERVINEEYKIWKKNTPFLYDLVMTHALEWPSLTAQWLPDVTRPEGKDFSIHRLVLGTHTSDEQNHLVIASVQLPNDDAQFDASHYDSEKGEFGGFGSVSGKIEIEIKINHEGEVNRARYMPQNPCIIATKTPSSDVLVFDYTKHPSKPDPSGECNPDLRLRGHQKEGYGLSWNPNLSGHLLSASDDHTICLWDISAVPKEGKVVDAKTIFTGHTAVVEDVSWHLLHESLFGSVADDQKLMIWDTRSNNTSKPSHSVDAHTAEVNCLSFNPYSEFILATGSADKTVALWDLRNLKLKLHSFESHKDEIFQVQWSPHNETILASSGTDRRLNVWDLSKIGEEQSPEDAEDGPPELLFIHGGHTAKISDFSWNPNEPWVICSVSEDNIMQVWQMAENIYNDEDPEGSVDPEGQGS
row,SMILES,IC50
1,"COc1ncc(-c2cnc(NCc3c(F)ccc4c3CCO4)n3cc(C#N)nc23)cc1C#N [Example 130, 8-(5-cyano-6-methoxypyridin-3-yl)-5-(((5-fluoro-2,3-dihydrobenzofuran-4-yl)methyl)amino)imidazo[1,2-c]pyrimidine-2-carbonitrile]",100 to 500 nM
2,"N#Cc1cn2c(NCc3c(F)ccc4c3CCO4)ncc(-c3cncc(C(F)(F)F)c3)c2n1 [Example 132, 5-(((5-fluoro-2,3-dihydrobenzofuran-4-yl)methyl)amino)-8-(5-(trifluoromethyl)pyridin-3-yl)imidazo[1,2-c]pyrimidine-2-carbonitrile]",> 500 nM
3,"N#Cc1cn2c(NCc3c(F)ccc4c3CCO4)ncc(-c3cnc(N)c(C(F)(F)F)c3)c2n1 [Example 134, 8-(6-amino-5-(trifluoromethyl)pyridin-3-yl)-5-(((5-fluoro-2,3-dihydrobenzofuran-4-yl)methyl)amino)imidazo[1,2-c]pyrimidine-2-carbonitrile]",100 to 500 nM
4,"Cc1nc(N2CCN(C)CC2)ccc1-c1cnc(NCc2c(F)ccc3c2CCO3)n2cc(C#N)nc12 [Example 136, 5-(((5-fluoro-2,3-dihydrobenzofuran-4-yl)methyl)amino)-8-(2-methyl-6-(4-methylpiperazin-1-yl)pyridin-3-yl)imidazo[1,2-c]pyrimidine-2-carbonitrile]",100 to 500 nM
5,"N#Cc1cn2c(NCc3c(F)ccc4c3CCO4)ncc(C3CCOCC3)c2n1 [Example 141, 5-(((5-fluoro-2,3-dihydrobenzofuran-4-yl)methyl)amino)-8-(tetrahydro-2H-pyran-4-yl)imidazo[1,2-c]pyrimidine-2-carbonitrile]",> 500 nM
6,"Cc1nc(-c2cnc(NCc3c(F)ccc4c3CCO4)n3cc(C#N)nc23)c(C)s1 [Example 145, 8-(2,5-dimethylthiazol-4-yl)-5-(((5-fluoro-2,3-dihydrobenzofuran-4-yl)methyl)amino)imidazo[1,2-c]pyrimidine-2-carbonitrile]",100 to 500 nM
7,"N#Cc1cn2c(NCc3c(F)ccc4c3CCO4)ncc(-c3ccccn3)c2n1 [Example 146, 5-(((5-fluoro-2,3-dihydrobenzofuran-4-yl)methyl)amino)-8-(pyridin-2-yl)imidazo[1,2-c]pyrimidine-2-carbonitrile]",100 to 500 nM
8,"N#Cc1cn2c(NCc3c(F)ccc4c3CCO4)ncc(-c3ccc(CO)nc3)c2n1 [Example 147, 5-(((5-fluoro-2,3-dihydrobenzofuran-4-yl)methyl)amino)-8-(6-(hydroxymethyl)pyridin-3-yl)imidazo[1,2-c]pyrimidine-2-carbonitrile]",100 to 500 nM
9,"CN(C)Cc1c(F)cc(-c2cnc(NCc3c(F)ccc4c3CCO4)n3cc(C#N)nc23)cc1F [Example 149, 8-(4-((dimethylamino)methyl)-3,5-difluorophenyl)-5-(((5-fluoro-2,3-dihydrobenzofuran-4-yl)methyl)amino)imidazo[1,2-c]pyrimidine-2-carbonitrile]",100 to 500 nM
10,"N#Cc1cn2c(NCc3c(F)ccc4c3CCO4)ncc(-c3ccc(CN4CC(O)C4)cc3)c2n1 [Example 150, 5-(((5-fluoro-2,3-dihydrobenzofuran-4-yl)methyl)amino)-8-(4-((3-hydroxyazetidin-1-yl)methyl)phenyl)imidazo[1,2-c]pyrimidine-2-carbonitrile]",< 100 nM
11,"N#Cc1cn2c(NCc3c(F)ccc4c3CCO4)ncc(-c3ccc(CN4CCC(O)C4)cc3)c2n1 (stereo not drawn) [Example 151, 5-(((5-fluoro-2,3-dihydrobenzofuran-4-yl)methyl)amino)-8-(4-((3-hydroxypyrrolidin-1-yl)methyl)phenyl)imidazo[1,2-c]pyrimidine-2-carbonitrile]",< 100 nM
12,"Cc1nc(CN(C)C)ccc1-c1cnc(NCc2c(F)ccc3c2CCO3)n2cc(C#N)nc12 [Example 152, 8-(6-((dimethylamino)methyl)-2-methylpyridin-3-yl)-5-(((5-fluoro-2,3-dihydrobenzofuran-4-yl)methyl)amino)imidazo[1,2-c]pyrimidine-2-carbonitrile]",100 to 500 nM
13,"N#Cc1cn2c(NCc3c(F)ccc4c3CCO4)ncc(-c3ccn(CC4CCCO4)n3)c2n1 (stereo not drawn) [Example 153, 5-(((5-fluoro-2,3-dihydrobenzofuran-4-yl)methyl)amino)-8-(1-((tetrahydrofuran-2-yl)methyl)-1H-pyrazol-3-yl)imidazo[1,2-c]pyrimidine-2-carbonitrile]",100 to 500 nM
14,"N#Cc1cn2c(NCc3c(F)ccc4c3CCO4)ncc(-c3cnn(CC4CCOC4)c3)c2n1 (stereo not drawn) [Example 154, 5-(((5-fluoro-2,3-dihydrobenzofuran-4-yl)methyl)amino)-8-(1-((tetrahydrofuran-3-yl)methyl)-1H-pyrazol-4-yl)imidazo[1,2-c]pyrimidine-2-carbonitrile]",100 to 500 nM
15,"Cc1cc(-c2cnc(NCc3c(F)ccc4c3C(O)CO4)n3cc(C#N)nc23)n(C)n1 (stereo not drawn) [Example 155, 8-(1,3-dimethyl-1H-pyrazol-5-yl)-5-(((5-fluoro-3-hydroxy-2,3-dihydrobenzofuran-4-yl)methyl)amino)imidazo[1,2-c]pyrimidine-2-carbonitrile]",< 100 nM
16,"Cn1cccc(-c2cnc(NCc3c(F)ccc4c3CCO4)n3cc(C#N)nc23)c1=O [Example 156, 5-(((5-fluoro-2,3-dihydrobenzofuran-4-yl)methyl)amino)-8-(1-methyl-2-oxo-1,2-dihydropyridin-3-yl)imidazo[1,2-c]pyrimidine-2-carbonitrile]",100 to 500 nM
17,"Cn1nc(C(=O)O)cc1-c1cnc(NCc2c(F)ccc3c2CCO3)n2cc(C#N)nc12 [Example 157, 5-(2-cyano-5-(((5-fluoro-2,3-dihydrobenzofuran-4-yl)methyl)amino)imidazo[1,2-c]pyrimidin-8-yl)-1-methyl-1H-pyrazole-3-carboxylic acid]",< 100 nM
18,"COCCOc1ccc(-c2cnc(NCc3c(F)ccc4c3CCO4)n3cc(C#N)nc23)cn1 [Example 158, 5-(((5-fluoro-2,3-dihydrobenzofuran-4-yl)methyl)amino)-8-(6-(2-methoxyethoxy)pyridin-3-yl)imidazo[1,2-c]pyrimidine-2-carbonitrile]",100 to 500 nM

# Further lines, results first:
row,IC50,SMILES
1,< 100 nM,"N#Cc1cn2c(NCc3c(F)ccc4c3CCO4)ncc(-c3ccc(N)nc3)c2n1 [Example 127, 8-(6-aminopyridin-3-yl)-5-(((5-fluoro-2,3-dihydrobenzofuran-4-yl)methyl)amino)imidazo[1,2-c]pyrimidine-2-carbonitrile]"
2,< 100 nM,"N#Cc1ccc(-c2cnc(NCc3c(F)ccc4c3CCO4)n3cc(C#N)nc23)cn1 [Example 128, 8-(6-cyanopyridin-3-yl)-5-(((5-fluoro-2,3-dihydrobenzofuran-4-yl)methyl)amino)imidazo[1,2-c]pyrimidine-2-carbonitrile]"
3,< 100 nM,"Cc1ncc(-c2cnc(NCc3c(F)ccc4c3CCO4)n3cc(C#N)nc23)cc1N [Example 129, 8-(5-amino-6-methylpyridin-3-yl)-5-(((5-fluoro-2,3-dihydrobenzofuran-4-yl)methyl)amino)imidazo[1,2-c]pyrimidine-2-carbonitrile]"
4,< 100 nM,"CC(=O)Nc1cc(-c2cnc(NCc3c(F)ccc4c3CCO4)n3cc(C#N)nc23)ccn1 [Example 131, N-(4-(2-cyano-5-(((5-fluoro-2,3-dihydrobenzofuran-4-yl)methyl)amino)imidazo[1,2-c]pyrimidin-8-yl)pyridin-2-yl)acetamide]"
5,< 100 nM,"CC(C)Oc1ccc(-c2cnc(NCc3c(F)ccc4c3CCO4)n3cc(C#N)nc23)cn1 [Example 133, 5-(((5-fluoro-2,3-dihydrobenzofuran-4-yl)methyl)amino)-8-(6-isopropoxypyridin-3-yl)imidazo[1,2-c]pyrimidine-2-carbonitrile]"
6,< 100 nM,"N#Cc1cn2c(NCc3c(F)ccc4c3CCO4)ncc(-c3ccc(N4CCCCC4)nc3)c2n1 [Example 135, 5-(((5-fluoro-2,3-dihydrobenzofuran-4-yl)methyl)amino)-8-(6-(piperidin-1-yl)pyridin-3-yl)imidazo[1,2-c]pyrimidine-2-carbonitrile]"
7,< 100 nM,"Cc1ncccc1-c1cnc(NCc2c(F)ccc3c2CCO3)n2cc(C(N)=O)nc12 [Example 137, 5-(((5-fluoro-2,3-dihydrobenzofuran-4-yl)methyl)amino)-8-(2-methylpyridin-3-yl)imidazo[1,2-c]pyrimidine-2-carboxamide]"
8,< 100 nM,"Cc1nc(N2CCN(C)CC2)ccc1-c1cnc(NCc2c(F)ccc3c2CCO3)n2cc(C(N)=O)nc12 [Example 138, 5-(((5-fluoro-2,3-dihydrobenzofuran-4-yl)methyl)amino)-8-(2-methyl-6-(4-methylpiperazin-1-yl)pyridin-3-yl)imidazo[1,2-c]pyrimidine-2-carboxamide]"
9,< 100 nM,"N#Cc1cn2c(NCc3c(F)ccc4c3CCO4)ncc(-c3cccnn3)c2n1 [Example 142, 5-(((5-fluoro-2,3-dihydrobenzofuran-4-yl)methyl)amino)-8-(pyridazin-3-yl)imidazo[1,2-c]pyrimidine-2-carbonitrile]"
10,< 100 nM,"Cn1nncc1-c1cnc(NCc2c(F)ccc3c2CCO3)n2cc(C#N)nc12 [Example 143, 5-(((5-fluoro-2,3-dihydrobenzofuran-4-yl)methyl)amino)-8-(1-methyl-1H-1,2,3-triazol-5-yl)imidazo[1,2-c]pyrimidine-2-carbonitrile]"
11,< 100 nM,"Cn1nc(C2CC2)cc1-c1cnc(NCc2c(F)ccc3c2CCO3)n2cc(C#N)nc12 [Example 144, 8-(3-cyclopropyl-1-methyl-1H-pyrazol-5-yl)-5-(((5-fluoro-2,3-dihydrobenzofuran-4-yl)methyl)amino)imidazo[1,2-c]pyrimidine-2-carbonitrile]"
12,< 100 nM,"N#Cc1cn2c(NCc3c(F)ccc4c3CCO4)ncc(-c3cccnc3CO)c2n1 [Example 148, 5-(((5-fluoro-2,3-dihydrobenzofuran-4-yl)methyl)amino)-8-(2-(hydroxymethyl)pyridin-3-yl)imidazo[1,2-c]pyrimidine-2-carbonitrile]"
